Literature values, collected in patent US20210236687A1, “CANNABINOID-BASED ORAL HEMOSTATIC COMPOSITIONS” (Pac-Dent, Inc., priority 2020, published 2021).

Tests used:
[1] = Evans 1991
[2] = tested on: MCP-2 chemokine and other proinflammatory cytokines; conditions: Petrosino et al. 2018; inhibition of production of MCP-2 chemokine and other proinflammatory cytokines
[3] = in vivo
[4] = tested on: methicillin-resistant Staphylococcus aureus strains (MRSA); conditions: European research
[5] = in vivo; remark: listed apart in the source

For CCCCCc1cc(O)c2c(c1)OC(C)(C)[C@@H]1CCC(C)=C[C@@H]21 [THC, tetrahydrocannabinol], the “anti-inflammatory potency relative to aspirin” value [1] is given as “twenty times”, the “anti-inflammatory potency relative to hydrocortisone” value [1] is given as “twice” and the “cyclooxygenase (COX) inhibition” value (cyclooxygenase (COX)) is given as “without any cyclooxygenase (COX) inhibition”.

For C=C(C)[C@@H]1CCC(C)=C[C@H]1c1c(O)cc(CCCCC)cc1O [CBD, cannabidiol, reference compound], the “anti-inflammatory properties in an in vitro model of allergic contact dermatitis” value (“anti-inflammatory properties” for short) [2] is listed as “potent anti-inflammatory properties”.

For C=C(C)[C@@H]1CCC(C)=C[C@H]1c1c(O)cc(CCC)cc1O [CBDV, cannabidivarin], the “anti-inflammatory properties” value [2] is listed as “some anti-inflammatory benefits”.

In the case of CCCCCc1cc(O)c2c(c1)OC(C)(CCC=C(C)C)C=C2 (stereo not shown) [CBC, cannabichromene], the “anti-inflammatory properties” value [2] is listed as “some anti-inflammatory benefits” and the “pain and inflammation associated with collagen-induced osteoarthritis” value [3] is listed as “block pain and inflammation”.

For CCCCCc1cc(O)c(C/C=C(\C)CCC=C(C)C)c(O)c1 [CBG, cannabigerol], the “antibacterial effect against MRSA strains resistant to several classes of drugs” value [4] is given as “effective antibacterial agent”, the “anti-inflammatory properties” value [2] is given as “some anti-inflammatory benefits” and the “inflammation characteristics in animal experiments” value [5] is given as “effective in decreasing the inflammation characteristics”.
